pIC50, pKd: −log10 of the molar value. Read-outs that look alike come from different tables or passages of the source.
How the values were obtained:
[1] = biological target: human RORγt ligand binding domain (RORγt LBD) (Homo sapiens (Human), UniProt P51449); assay: RORγt ThermoFluor® assay (thermal shift binding)
In short: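 His-tagged human RORγt LBD (0.065 mg/mL) with 60 μM 1,8-ANS in 100 mM Hepes pH 7.0, 10 mM NaCl, 2.5 mM GSH, 0.002% Tween-20 was heated at 1 °C/min.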

full-length human RORγt = full-length human RORγt (Homo sapiens (Human), UniProt P51449); assay: RORγt (full-length human) reporter assay, Conditions B or C; format: cell-based; conditions: for RORγt (FL) Reporter Assay B or C, % inhibition (value marked *): marked *: footnote not given; for inhibition at 6 µM: read-out: RORγt (FL) Reporter Assay B or C, % inhibition @ 6 μM, Conditions B or C; for inhibition at 1 µM: at 1 μM compound concentration; for inhibition at 1 µM / inhibition at 3 µM: read-out: RORγt (FL) Reporter Assay B or C, % inhibition; for inhibition at 3 µM: at 3 μM compound concentration
Sequence of full-length human RORγt (P51449 other isoform, or with tags, fused parts or gaps): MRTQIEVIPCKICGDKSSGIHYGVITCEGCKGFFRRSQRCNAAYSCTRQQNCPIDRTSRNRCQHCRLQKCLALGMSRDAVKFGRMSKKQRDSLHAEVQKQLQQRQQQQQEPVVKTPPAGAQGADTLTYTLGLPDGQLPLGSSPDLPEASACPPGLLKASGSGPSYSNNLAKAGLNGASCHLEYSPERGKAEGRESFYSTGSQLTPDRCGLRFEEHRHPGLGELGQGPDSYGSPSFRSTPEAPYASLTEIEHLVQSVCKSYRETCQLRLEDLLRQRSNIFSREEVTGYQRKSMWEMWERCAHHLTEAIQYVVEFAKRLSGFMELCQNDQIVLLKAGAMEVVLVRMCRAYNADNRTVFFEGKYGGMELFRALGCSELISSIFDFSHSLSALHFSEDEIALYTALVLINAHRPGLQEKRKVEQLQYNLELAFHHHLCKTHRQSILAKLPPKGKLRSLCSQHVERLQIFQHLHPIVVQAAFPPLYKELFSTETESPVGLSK
In short: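 HEK293T cells transiently co-transfected with GAL4-DBD–full-length human RORγt (nt 142-1635, NM_001001523.1) plus GAL4-firefly and CMV-Renilla luciferase reporters; compounds added 4-6 h post-transfection for 16-20 h in 1.3% FBS, 0.1% DMSO. Firefly signal normalized to DMSO and saturating reference compound, then to Renilla; IC50 from concentration plots.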

[2] = read-out: ThermoFluor® Assay, Kd
[3] = Conditions B or C, read-out: RORγt (FL) Reporter Assay B or C, IC50
[4] = RORγt (FL) Reporter Assay B or C, IC50
[5] = read-out: RORγt (FL) Reporter Assay B or C, IC50

Sequence of human RORγt ligand binding domain (RORγt LBD) (P51449 other isoform, or with tags, fused parts or gaps): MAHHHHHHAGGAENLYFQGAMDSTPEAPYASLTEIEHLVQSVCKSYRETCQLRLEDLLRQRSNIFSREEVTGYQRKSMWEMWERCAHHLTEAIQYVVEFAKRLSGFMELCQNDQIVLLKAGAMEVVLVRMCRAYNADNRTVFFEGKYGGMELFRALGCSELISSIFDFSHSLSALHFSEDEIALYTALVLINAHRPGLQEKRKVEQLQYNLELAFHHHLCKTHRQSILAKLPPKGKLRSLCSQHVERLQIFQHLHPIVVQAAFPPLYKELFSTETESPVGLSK

SMILES | pKd [1, 2] | RORγt (FL) Reporter Assay B or C, % inhibition (value marked *) (full-length human RORγt; Conditions B or C) | pIC50 (full-length human RORγt; [3]) | further results
C[C@H](CO)NC(=O)c1nc(C(=O)N2C3CCC2CC3)c(-c2cnc(N[C@@H](C)C(F)(F)F)cc2C(F)F)s1 [Example 226, 4-((1s,4s)-7-Azabicyclo[2.2.1]heptane-7-carbonyl)-5-(4-(difluoromethyl)-6-(((1S)-2,2,2-trifluoro-1-methyl-ethyl)amino)-3-pyridyl)-N-((1R)-2-hydroxy-1-methyl-ethyl)thiazole-2-carboxamide] | 7.85 | 94* % | 6.85 | 
C[C@H]1CCCN1C(=O)c1nc(C(=O)NCC(C)(C)O)sc1-c1cnc(NC2(C(F)(F)F)CC2)cc1C(F)(F)F [Example 147, (S)—N-(2-Hydroxy-2-methylpropyl)-4-(2-methylpyrrolidine-1-carbonyl)-5-(4-(trifluoromethyl)-6-((1-(trifluoromethyl)cyclopropyl)amino)pyridin-3-yl)thiazole-2-carboxamide] | 8.03 |  | 6.92 | RORγt (FL) Reporter Assay B or C, % inhibition (value marked ***) (full-length human RORγt; Conditions B or C, marked ***: footnote not given): 94*** %
C[C@H]1CCCN1C(=O)c1nc(C(=O)NCC(C)(C)O)sc1-c1cnc(N[C@@H]2CCCCC2(F)F)cc1C(F)(F)F (relative stereo) [Example 35, 5-(6-(((R*)-2,2-Difluorocyclohexyl)amino)-4-(trifluoromethyl)pyridin-3-yl)-N-(2-hydroxy-2-methylpropyl)-4-((S)-2-methylpyrrolidine-1-carbonyl)thiazole-2-carboxamide] | 8.41 |  | 7.70 | inhibition at 6 µM (full-length human RORγt): 114%
C[C@H]1CC(F)(F)CN1C(=O)c1nc(C(=O)N[C@@H]2COC[C@@H]2O)sc1-c1cnc(NC2(C)CCC2)cc1C(F)(F)F (relative stereo) [Example 183, 4-((S)-4,4-Difluoro-2-methylpyrrolidine-1-carbonyl)-N-((3R*,4R*)-4-hydroxytetrahydrofuran-3-yl)-5-(6-((1-methylcyclobutyl)amino)-4-(trifluoromethyl)pyridine-3-yl)thiazole-2-carboxamide] | 9.66 | 76* % | 7.47 | 
CC(C)(C)Nc1cc(C(F)F)c(-c2sc(C(=O)N[C@@H]3CC[C@@H](O)C3)nc2C(=O)N2C3CCC2CC3)cn1 [Example 430, 4-((1s,4s)-7-Azabicyclo[2.2.1]heptane-7-carbonyl)-5-[6-(tert-butylamino)-4-(difluoromethyl)-3-pyridyl]-N-[(1R,3R)-3-hydroxycyclopentyl]thiazole-2-carboxamide] | 9.22 |  |  | pIC50 (full-length human RORγt; [4]): 7.89; inhibition at 1 µM (full-length human RORγt): 130%
C[C@@H](Nc1cc(C(F)(F)F)c(-c2sc(C(=O)NCC(C)(C)O)nc2C(=O)N2CCC(F)CC2)cn1)C1CC1 [Example 29, (R)-5-(6-((1-Cyclopropylethyl)amino)-4-(trifluoromethyl)pyridin-3-yl)-4-(4-fluoropiperidine-1-carbonyl)-N-(2-hydroxy-2-methylpropyl)thiazole-2-carboxamide] | 7.66 |  | 7.66 | inhibition at 6 µM (full-length human RORγt): 105%
C[C@H]1CCCN1C(=O)c1nc(C(=O)N[C@H](C)C(C)(C)O)sc1-c1cnc(N[C@H](C2CC2)C(F)(F)F)cc1C(F)F [Example 332, 5-(6-(((R)-1-Cyclopropyl-2,2,2-trifluoroethyl)amino)-4-(difluoromethyl)pyridin-3-yl)-N—((R)-3-hydroxy-3-methylbutan-2-yl)-4-((S)-2-methylpyrrolidine-1-carbonyl)thiazole-2-carboxamide] | 8.82 |  |  | inhibition at 3 µM (full-length human RORγt): 107%; pIC50 (full-length human RORγt; [5]): 7.05
C[C@H]1CCCN1C(=O)c1nc(C(=O)N[C@@H]2CCC[C@H]2O)sc1-c1cnc(NC(C)(C)C)cc1C(F)(F)F [Example 351, 5-[6-(tert-Butylamino)-4-(trifluoromethyl)-3-pyridyl]-N-[(1R,2R)-2-hydroxycyclopentyl]-4-[(2S)-2-methylpyrrolidine-1-carbonyl]thiazole-2-carboxamide] | 9.82 |  |  | pIC50 (full-length human RORγt; [5]): 8.10
C[C@H]1CCCN1C(=O)c1nc(C(=O)NC2CCS(=O)(=O)CC2)sc1-c1cnc(NC2(C)CCC2)cc1C(F)F [Example 324, (S)-5-(4-(Difluoromethyl)-6-((1-methylcyclobutyl)amino)pyridin-3-yl)-N-(1,1-dioxidotetrahydro-2H-thiopyran-4-yl)-4-(2-methylpyrrolidine-1-carbonyl)thiazole-2-carboxamide] | 8.62 |  |  | inhibition at 3 µM (full-length human RORγt): 93%; pIC50 (full-length human RORγt; [5]): 7.42
CC[C@H](Nc1cc(C(F)F)c(-c2sc(C(=O)NC3CCOCC3)nc2C(=O)N2C3CCC2CC3)cn1)C(F)(F)F [Example 153] | 8.96 | 98* % | 7.28 | 
C[C@@H](Nc1cc(C(F)F)c(-c2sc(C(=O)NCC(C)(C)O)nc2C(=O)N2CCC[C@@H]2C)cn1)C1CC1 [Example 50, 5-(6-(((R)-1-Cyclopropylethyl)amino)-4-(difluoromethyl)pyridin-3-yl)-N-(2-hydroxy-2-methylpropyl)-4-((S)-2-methylpyrrolidine-1-carbonyl)thiazole-2-carboxamide] | 7.15 | 100* % | 7.24 | 
C[C@H](CO)NC(=O)c1nc(C(=O)N2CCC[C@@H]2C)c(-c2cnc(NC(C)(C)C)cc2C(F)(F)F)s1 [Example 346, 5-[6-(tert-Butylamino)-4-(trifluoromethyl)-3-pyridyl]-N-[(1R)-2-hydroxy-1-methyl-ethyl]-4-[(2S)-2-methylpyrrolidine-1-carbonyl]thiazole-2-carboxamide] | 8.85 |  |  | inhibition at 3 µM (full-length human RORγt): 112%; pIC50 (full-length human RORγt; [5]): 7.89
C[C@H]1CC(F)(F)CN1C(=O)c1nc(C(=O)NC2COCC2O)sc1-c1cnc(NC2(C)CCC2)cc1C(F)(F)F (stereo in doubt) [Example 185, 4-((S)-4,4-Difluoro-2-methylpyrrolidine-1-carbonyl)-N-((3S,4R)-4-hydroxytetrahydrofuran-3-yl)-5-(6-((1-methylcyclobutyl)amino)-4-(trifluoromethyl)pyridine-3-yl)thiazole-2-carboxamide] | 9.64 | 101* % | 7.82 | 
C[C@H](Nc1cc(C(F)F)c(-c2sc(C(=O)NC3CS(=O)(=O)C3)nc2C(=O)N2CC(F)(F)C[C@@H]2C)cn1)C(F)(F)F [Example 192, 4-((S)-4,4-Difluoro-2-methylpyrrolidine-1-carbonyl)-5-(4-(difluoromethyl)-6-(((S)-1,1,1-trifluoropropan-2-yl)amino)pyridine-3-yl)-N-(1,1-dioxidothietan-3-yl)thiazole-2-carboxamide] | 8.55 | 101* % | 7.43 | 
C[C@H](Nc1cc(C(F)(F)F)c(-c2sc(C(=O)N[C@H]3COC[C@H]3O)nc2C(=O)N2C3CCC2CC3)cn1)C(F)(F)F (single isomer, unassigned) [Example 255, 4-((1s,4s)-7-Azabicyclo[2.2.1]heptane-7-carbonyl)-N-((3S*,4S*)-4-hydroxytetrahydrofuran-3-yl)-5-(4-(trifluoromethyl)-6-(((S)-1,1,1-trifluoropropan-2-yl)amino)pyridin-3-yl)thiazole-2-carboxamide] |  |  |  | pKd ([1]; ThermoFluor® Assay, Kd): 7.80; pIC50 (full-length human RORγt; [4]): 6.80; inhibition at 1 µM (full-length human RORγt): 78%

Source: US10975068B2, “6-aminopyridin-3-yl thiazoles as modulators of RORγT” (Janssen Pharmaceutica NV, priority 2016, dated 2021)
